These results are taken from US6528656B1, “Linear or cyclic aminophosphonates as pH markers in phosphorus 31 NMR spectroscopy” (Centre National de la Recherche Scientifique (CNRS), priority 1998, dated 2003).

Where two headings read alike, the source gives them in different places.

One series has as its system tumour cell line. Particulars: cited from earlier work.
The test system of series [1] is myocardial or liver cells. Put plainly: toxicity, cell penetration and 31P NMR pH measurement in myocardial or liver cells. The class given is cell-based. From the text:
The compounds of formulae (II.1) and (II.2) are on the whole particuarly non-toxic and penetrate into myocardial or liver cells (in sufficient amount to be observed but in a sufficiently small amount to remain non-toxic), thus allowing a measurement of the pH values of intracellular and extracellular media.

Series [2] is described as follows: physchem. The class given is physicochemical. As to conditions: 37° C., 5 mM solution in phosphate buffer, 400 MHz NMR, from titration curve.
Procedure: The results obtained allowed titration curves to be plotted.
Each measurement was taken at 37° C. using a 5 mM solution of the test compound in a phosphate buffer on a 400 MHz NMR spectroscopy machine.
The variation in the phosphorus-31 chemical shift was studied as a function of the pH: the measurements were taken at 22° C., or 37° C. respectively, on a 400 MHz NMR machine using 5 mM solutions of the test compound in a phosphate buffer.
Series [3] in a line: physchem.

As to `O=CC[C@@H](O)[C@H](O)[C@H](O)COP(=O)(O)O` [2-deoxyglucose 6-phosphate, 2-Deoxyglucose 6-phosphate], in the series on tumour cell line, the metabolism entry is “not metabolized” and the toxicity result was “toxic to the cell”.

With `CCOP(=O)(OCC)C1(C)CCCN1` (centres unmarked) [Compound 1, 2-methyl-2-diethoxyphosphorylpyrrolidine], the “variations in the phosphorus chemical shift as a function of intracellular acidosis versus intracellular Pi” value in series [1] (in the course of ischaemia, cytosolic medium) was “fully correlated”. In series [1] (liver, very acidic (pH 5) vesicles), the “pH measurements in liver compartments (extracellular, cytosolic, intravesicular medium)” value was “allows three measurements at the same time”.

Regarding `CCOP(=O)(OCC)C1(P(=O)(OCC)OCC)CCCN1` [Compound 2, 2,2-bis(diethoxyphosphoryl) pyrrolidine], the pKa in “physchem [2]” stood at 3.47; in the series “physchem [3]”, 3.5.

Take `CC(C)OP(=O)(OC(C)C)C1(P(=O)(OC(C)C)OC(C)C)CCCN1` [Compound 3, 2,2-bis(diisopropoxyphosphoryl) pyrrolidine]: the pKa in “physchem [2]” was 3.9.

Consider `CCOP(=O)(OCC)C1(C)CCC(C)(P(=O)(OCC)OCC)N1` (centres unmarked) [Compound 4, 2,5-bis(diethoxyphosphoryl)-2,5-dimethylpyrrolidine], for which, in the series “physchem [2]”, the pKa came to 2.45.
